# Test results reported in PMC6803074 (Experimental hematology, 2019).
# Key:
# Test in all cases: cell proliferation assay
# Format in all cases: cell-based
# BCR-ABL1 [1] = details: BCR-ABL1-positive cells; proliferation read-out; stated gain
# BCR-ABL1 [2] = details: BCR-ABL1-positive cells; proliferation read-out
# BCR-ABL1 [3] = details: BCR-ABL1-positive cells; proliferation read-out; stated gain; remark: listed apart in the source
# BCR-ABL1 [4] = details: BCR-ABL1-positive cells; proliferation read-out; stated gain; remark: listed apart in the source
structure (smiles),measurement,setting,value
Cc1ccc(C(=O)NNC(=O)c2c(C)cccc2Cl)cc1C#Cc1cnc2ccccc2c1 [K0706],IC50,BCR-ABL1 [1],1.967 µM
same,IC50,BCR-ABL1 [2],0.007 µM
same,IC50,BCR-ABL1 [3],0.154 µM
same,IC50,BCR-ABL1 [4],0.165 µM
